Patent US9134327B2, “STAT3 and TYK2 as drug targets for neurodegenerative diseases” (Biotechnology Research Corporation Limited, priority 2008, dated 2015)

What was measured:
STAT3 (P-Tyr, Tyr705) = assay: Tyrosine phosphorylation of STAT3 in cortical neurons, immunoblot; type: cell-based, rat; settings: for inhibition of Aβ-induced tyrosine phosphorylation of STAT3: primary cortical neurons pretreated with inhibitor 2 hrs, then Aβ25-35 for 4 hrs or 24 hrs
Procedure: FIG. 2: Tyrosine phosphorylation of STAT3 is increased in cultured cortical neurons stimulated with Aβ25-35. Primary cortical neurons at 7 DIV were treated with Aβ25-35 (40 μM; H2O served as solvent control) for various times as indicated. Cell lysates were collected and subjected to immunoblotting using P-Tyr STAT3 and total STAT3 antibodies.
(§1) FIG. 4: Tyk2 is required for beta-amyloid peptide-induced tyrosine phosphorylation of STAT3 and neuronal cell death. A. Primary cortical neurons were pretreated with various inhibitors including a potent inhibitor of JAK (JAK inhibitor 1), a JAK2 inhibitor (AG490), a Src tyrosine kinase inhibitor (PP2) and a protein synthesis inhibitor (cycloheximide) for 2 hrs as indicated, followed by treatment with Aβ25-35 peptide for 4 hrs or 24 rs. The cell lysates were immunoblotted with P-Tyr STAT3 and total STAT3 antibody. B. Primary cortical neurons were treated with Aβ25-35. The cell lysates were immunoprecipitated using Tyk2 or JAK2 antibody, and then subjected to Western blot analysis for phospho-tyrosine (P-Tyr) antibody. C. Primary cortical neurons prepared from Tyk2^−/− mice were treated with Aβ25-35. The cell lysates were subjected to immunoblotting using P-Tyr STAT3, total STAT3 and caspase-3 antibody. Quantification analysis of fold change in tyrosine phosphorylated STAT3 and cleaved caspase-3 (bottom panels).
Cultured rat cortical neurons were used as a cell culture model to investigate the role of STAT3 tyrosine phosphorylation in AD. The cortical neurons (7 DIV) were treated with Aβ peptide 25-35.
Since Aβ induced tyrosine phosphorylation of STAT3, the next aim was to identify the upstream regulators of STAT3. Cortical neurons were pre-treated with different inhibitors prior to […] treatment. […] Cortical neurons were treated with Aβ peptide for 1 hr. Endogenous Tyk2 or JAK2 were immunoprecipitated by specific antibodies, and the precipitates were detected by monoclonal phospho-tyrosine antibody, 4G10.
Preparation of Brain Extracts, Cell Extracts, and Western Blots: Four Brain Parts including cortex, hippocampus, cerebellum and striatum were dissected from transgenic mice of various stages (from 2 months to 18 months) and kept on dry ice. Frozen brain tissues were homogenized in homogenizing buffer (25 mM Tris-HCl, pH 7.4, 150 mM NaCl, 1 mM EDTA, pH 7.4, 50 mM NaF) with various protease inhibitors. The supernatant was kept for Western Blotting and the pellets were reextracted using RIPA lysis buffer (150 mM NaCl, 1% (v/v) Nonidet P-40, 0.5% deoxycholic acid, 0.1% (w/v) SDS) containing various protease inhibitors (2 μg/ml aprotinin, 1 mM phenylmethylsulfonyl fluoride, 5 mM benzamidine, 1 mM sodium orthovanadate (NaOV), and 10 μg/ml soybean trypsin inhibitor). Primary cultured cortical neurons or PC12 cells were harvested and lysed in RIPA lysis buffer containing protease inhibitors.

iNOS gene expression = assay: iNOS mRNA in primary cortical neurons, real-time PCR; type: cell-based
Procedure: (§2) FIG. 5: Transcription activity of STAT3 in PC12 cells and iNOS RNA in cultured cortical neurons increases upon stimulation with Aβ25-35. A. PC12 cells were transfected with a STAT1 (pGAS-Luc) or STAT3 (pSTAT3-Luc) reporter gene construct together with an internal control plasmid (β-galactosidase-pCMV). The cells were differentiated by NGF for 4 days, and were then treated with Aβ25-35 or NGF (positive control) for 1 day. Luciferase activity was measured and normalized against the β-galactosidase activity in the samples. Results were normalized with β-galactosidase activity; mean±S.E., n=3; *, p<0.05. B. Primary cortical neurons at 7 DIV were pretreated with STAT3 inhibitor or JAK inhibitor I for 30 minutes, followed by Aβ25-35 (40 μM) treatment for 6 hours. Total RNA was collected and subjected to reverse transcription. The cDNA was then subjected to real-time PCR analysis using iNOS primers.
Primary cortical neurons were treated with Aβ peptide for 6 hr. […]
Quantitative RT-PCR: Total RNA was isolated from Aβ-treated cortical neurons using RNeasy mini kit (Qiagen) according to the manufacturer's instruction. […] Quantitative PCR was performed with specific primers targeting specific genes using Bio-Rad MX3000P real-time PCR system.

STAT3 = STAT3 luciferase reporter (pSTAT3-Luc) in PC12 cells; type: cell-based; settings: PC12 cells differentiated by NGF 4 days, treated 1 day
Procedure: as §2
(§3) To further characterize if Aβ peptide effects STAT3 transcriptional activity, PC12 cells were transfected with a luciferase construct linked to the STAT3-response enhancer element (pSTAT3-Luc). The luciferase construct linked to the STAT1-response enhancer element (pGAS-Luc) was used as a control.

Tyk2 = Tyk2 tyrosine phosphorylation in cortical neurons, immunoprecipitation and phospho-tyrosine blot; type: cell-based; settings: cortical neurons treated 1 hr; IP Tyk2, 4G10 blot
Description: as §1
Since Aβ induced tyrosine phosphorylation of STAT3, the next aim was to identify the upstream regulators of STAT3. Cortical neurons were pre-treated with different inhibitors prior to iv treatment. […] Endogenous Tyk2 or JAK2 were immunoprecipitated by specific antibodies, and the precipitates were detected by monoclonal phospho-tyrosine antibody, 4G10.

STAT1 = STAT1 luciferase reporter (pGAS-Luc) in PC12 cells; type: cell-based; settings: PC12 cells differentiated by NGF 4 days, treated 1 day
Procedure: as §2, §3

| Molecule | inhibition of Aβ-induced tyrosine phosphorylation of STAT3 (STAT3 (P-Tyr, Tyr705)) | STAT3 promoter activity (pSTAT3-Luc luciferase) (STAT3) | STAT1 promoter activity (pGAS-Luc luciferase) (STAT1) | also measured |
| --- | --- | --- | --- | --- |
| CC(C)(C)c1nc2c3cc[nH]c(=O)c3c3cc(F)ccc3c2[nH]1 [JAK inhibitor 1] | completely inhibited |  |  | block of Aβ-induced increase in iNOS gene expression (iNOS gene expression; primary cortical neurons 7 DIV, 30 minutes pretreatment, then Aβ25-35 40 μM for 6 hours): blocked |
| N#C/C(=C/c1ccc(O)c(O)c1)C(=O)NCc1ccccc1 [AG490] | did not exhibit similar inhibitory effects |  |  |  |
| C[C@@H]1C[C@@H]([C@H](O)CC2CC(=O)NC(=O)C2)C(=O)[C@@H](C)C1 [cycloheximide] | neither the Src kinase inhibitor PP2 nor the protein synthesis inhibitor cycloheximide affected |  |  |  |
| CC(C)(C)n1nc(-c2ccc(Cl)cc2)c2c(N)ncnc21 [PP2] | neither the Src kinase inhibitor PP2 nor the protein synthesis inhibitor cycloheximide affected |  |  |  |
| Aβ peptide 25-35: β-amyloid peptide fragment 25-35 used to stimulate neurons and PC12 cells (GSNKGAIIGLM; Amyloid-beta protein 42; UniProt P05067 696-706, looked up, fragment) |  | only induced the STAT3 promoter activity | only induced the STAT3 promoter activity | tyrosine phosphorylation of STAT3 induced by treatment (STAT3 (P-Tyr, Tyr705); cortical neurons 7 DIV, Aβ25-35 40 μM, up to 4 hrs): significant increase in tyrosine phosphorylation of STAT3; iNOS gene expression level after treatment (iNOS gene expression; primary cortical neurons, 6 hr treatment): increased; Tyk2 tyrosine phosphorylation after treatment (Tyk2): could be detected |
| NGF: growth factor used to differentiate PC12 cells; positive control in the reporter assay (protein, UniProt P25427 122-241, looked up) Beta-nerve growth factor: SSTHPVFHMGEFSVCDSVSVWVGDKTTATDIKGKEVTVLGEVNINNSVFKQYFFETKCRAPNPVESGCRGIDSKHWNSYCTTTHTFVKALTTDDKQAAWRFIRIDTACVCVLSRKAARRG |  | induced the promoter activity of both STAT3 and STAT1 | induced the promoter activity of both STAT3 and STAT1 |  |
